Among the test systems are OVCAR-4 ovarian; A549 NSCLC; MCF7 breast; COLO 205 colon; SN12C renal; SF-539 CNS; SK-MEL-2 melanoma; DU-145 prostate; MDA-MB-435; SR leukemia.
What all share (experiment): inhibition of tumour cell growth, NCI panel, 48 h

“And” between values parts separate entries of the source, which are not always exact repeats. Equal values may be shown once.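 Exposure lasted 48 hours, with cells grown in 96-well plates and compounds tested at five concentrations. Abbreviation: GI50, concentration required for 50% inhibition of growth. TGI: concentration producing complete growth inhibition.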 Bounds are passed on as bounds.

We go through 15 compounds from PubChem BioAssay (NCI).

`N#CCCSC(=S)C1CCCC1=N` (stereo not given): the TGI in the assay on OVCAR-4 ovarian, in the assay with A549 NSCLC, in the assay with MCF7 breast, with COLO 205 colon, with SN12C renal and in the assay with SF-539 CNS was over 100 µM throughout. Further, the TGI in the assay with SK-MEL-2 melanoma, with DU-145 prostate and with MDA-MB-435 was over 100 µM throughout.
Turning to `Cc1ccc(C(=O)C#Cc2c[nH]c(=O)[nH]c2=O)cc1`, the TGI stood at 47.3 µM in the assay on OVCAR-4 ovarian; 39.8 µM with A549 NSCLC; 44.3 µM in the assay on COLO 205 colon; 16.2 µM with SN12C renal; 15.5 µM with SF-539 CNS; 27.6 µM in the assay with SK-MEL-2 melanoma.
On to `NCCCNCCSSC/C=C\CSSCCNCCCN`, for which the TGI in the assay on OVCAR-4 ovarian, with A549 NSCLC, in the assay with COLO 205 colon, with SN12C renal, in the assay on SF-539 CNS and in the assay on SK-MEL-2 melanoma was over 100 µM each time. Further, in the assay on A549 NSCLC, the GI50 is > 100 µM and 46.8 µM.
Turning to `Cc1c(-c2nnc(-c3ccc(F)cc3)o2)nnn1-c1ccnc2c(C(F)(F)F)cccc12`, the GI50 with OVCAR-4 ovarian was 21 µM; in the assay on A549 NSCLC, 32.3 µM; in the assay on MCF7 breast it was 20.9 µM; in the assay with COLO 205 colon, 42.1 µM; with SN12C renal, 41.3 µM; in the assay on SF-539 CNS it was 26.5 µM. In addition, the GI50 in the assay on SK-MEL-2 melanoma was over 100 µM; with DU-145 prostate, 30.4 µM; in the assay on MDA-MB-435, 77.6 µM. Also, the TGI with OVCAR-4 ovarian, in the assay with A549 NSCLC, with MCF7 breast, with COLO 205 colon, in the assay on SN12C renal and with SF-539 CNS was over 100 µM throughout. The TGI in the assay with SK-MEL-2 melanoma, in the assay with DU-145 prostate and in the assay with MDA-MB-435 was over 100 µM throughout.
Consider `COC1OC(COS(=O)(=O)c2ccc(C)cc2)C(O)C(OS(=O)(=O)c2ccc(C)cc2)C1OS(=O)(=O)c1ccc(C)cc1` (stereo not given), for which the TGI in the assay with SR leukemia, with OVCAR-4 ovarian, with A549 NSCLC, in the assay with COLO 205 colon, in the assay on SN12C renal and in the assay on SF-539 CNS was over 100 µM in each case. Moreover, in the assay on SK-MEL-2 melanoma, the TGI was over 100 µM.
As for `NC(=O)Nc1c([N+](=O)[O-])cc(C(F)(F)F)cc1[N+](=O)[O-]`, the TGI was over 100 µM in the assay on SR leukemia; over 100 µM with OVCAR-4 ovarian; over 100 µM in the assay on A549 NSCLC; 98.1 µM in the assay on COLO 205 colon; over 100 µM with SN12C renal; over 100 µM in the assay on SF-539 CNS. The same compound returned a TGI in the assay with SK-MEL-2 melanoma of over 100 µM.
In the case of `CC1=NC(C(C)C)C(=O)O1` (stereo not given), the TGI with OVCAR-4 ovarian, with COLO 205 colon, in the assay with SN12C renal and in the assay with SF-539 CNS was over 100 µM each time.
Turning to `Cc1cc(=O)oc2c(OS(C)(=O)=O)c(OS(C)(=O)=O)ccc12`, the TGI in the assay on SR leukemia, in the assay on OVCAR-4 ovarian, in the assay on A549 NSCLC, with MCF7 breast, with COLO 205 colon and in the assay on SN12C renal was over 100 µM each time. Moreover, the TGI in the assay with SF-539 CNS, with SK-MEL-2 melanoma and in the assay with MDA-MB-435 was over 100 µM in each case.
In the case of `O=C1OC(c2ccccc2)=N/C1=C\c1cc(Cl)ccc1Cl`, the TGI with OVCAR-4 ovarian, in the assay with A549 NSCLC, in the assay with COLO 205 colon, in the assay on SN12C renal, with SF-539 CNS and with SK-MEL-2 melanoma was over 100 µM in each case.
In the case of `C=C(C)[C@@H]1CC[C@]2(C(=O)O)CC[C@]3(C)[C@H](CC[C@@H]4[C@@]5(C)C/C(=C/c6ccc(OC)cc6)C(=O)C(C)(C)[C@@H]5CC[C@]43C)[C@@H]12`, the GI50 in the assay with OVCAR-4 ovarian was 2.5 µM; with A549 NSCLC it was 1.3 µM; in the assay with MCF7 breast it was 2.59 µM; in the assay on SN12C renal it was 2.07 µM; in the assay with SF-539 CNS it was 1.94 µM; in the assay with SK-MEL-2 melanoma, 2.38 µM. For the same compound, the values for the GI50 in the assay on DU-145 prostate and in the assay on MDA-MB-435 were 3.09 µM and 1.84 µM, respectively. For the same compound, the TGI turned out to be 11.2 µM in the assay on OVCAR-4 ovarian; 4.56 µM in the assay on A549 NSCLC; 7.74 µM in the assay on MCF7 breast; 5.9 µM in the assay on SN12C renal; 4.16 µM with SF-539 CNS; 6.29 µM in the assay with SK-MEL-2 melanoma. Further, the TGI with DU-145 prostate was 15.3 µM; in the assay with MDA-MB-435, 4.02 µM.
For the compound `CCCc1nc(NC#N)nc(C(=O)NC23CC4CC(CC(C4)C2)C3)c1C`, the TGI in the assay on SR leukemia, with OVCAR-4 ovarian, with A549 NSCLC, with COLO 205 colon, with SN12C renal and in the assay with SF-539 CNS was over 100 µM in each case. The same compound had a TGI with SK-MEL-2 melanoma of over 100 µM.
Regarding `CCOC(=O)N[C@@H]1C2CC(=O)C(O2)[C@@H]1OC` (stereo not given in full), the TGI in the assay with SR leukemia, in the assay on OVCAR-4 ovarian, with A549 NSCLC, in the assay on COLO 205 colon, in the assay on SN12C renal and in the assay with SF-539 CNS was over 100 µM throughout. In the assay on SK-MEL-2 melanoma, the TGI is over 100 µM.
Consider `COc1ccc(C(=O)C(C(=O)C(=O)NC2C3CC4CC(C3)CC2C4)c2ccc(OC)cc2)cc1` (stereo not given), for which the TGI with SR leukemia, with OVCAR-4 ovarian, in the assay with A549 NSCLC, with COLO 205 colon, in the assay on SN12C renal and in the assay on SF-539 CNS was over 100 µM in each case. The same compound displayed a TGI in the assay with SK-MEL-2 melanoma of over 100 µM.
Turning to `COC(=O)C1=C(c2ccc3c(c2)OCO3)OC(c2ccc3c(c2)OCO3)C1` (stereo not given), the TGI in the assay on SR leukemia, with OVCAR-4 ovarian, in the assay with A549 NSCLC, in the assay on COLO 205 colon, in the assay on SN12C renal and in the assay with SF-539 CNS was over 100 µM in each case. This compound also returned a TGI in the assay on SK-MEL-2 melanoma of over 100 µM.
For `Cc1nn(-c2ccccc2)c2nc3c(nc12)C1=NCCN1C(c1ccc(Cl)cc1)N3` (stereo not given), the GI50 is 2.48 µM with SR leukemia; 7.1 µM with OVCAR-4 ovarian; 4.63 µM with A549 NSCLC; 1.84 µM in the assay with COLO 205 colon; 11.4 µM with SN12C renal; 1.94 µM in the assay on SF-539 CNS. Further, the results for the GI50 in the assay with SK-MEL-2 melanoma, in the assay with DU-145 prostate and in the assay on MDA-MB-435 were 2.3 µM, 5.9 µM and 1.85 µM, respectively. In addition, the TGI is 6.32 µM in the assay with SR leukemia; 20.9 µM in the assay on OVCAR-4 ovarian; 17.7 µM in the assay with A549 NSCLC; 3.36 µM in the assay with COLO 205 colon; 25.2 µM in the assay with SN12C renal; 4.23 µM with SF-539 CNS. Moreover, the TGI turned out to be 4.46 µM in the assay with SK-MEL-2 melanoma, 17.9 µM in the assay with DU-145 prostate and 3.74 µM in the assay on MDA-MB-435.
